In patent EP0686425A1, “PROCESS FOR PRODUCING MICROCAPSULE OF HYDROPHOBIC DRUG” (SANSUI CO., LTD., priority 1993, dated 1995):

Legend:
[1] = cited from earlier work; for solubility in water: temperature not given
[2] = test system: Japan white breeding rabbits; conditions: rabbit, in vivo
Method: Six medically inspected Japan white breeding rabbits (conventional) were given a haircut along the spine and 6 spots of 2x3 cm each were closed patched with 0.5 g of Composition No.6 powder or 0.25 g of a powder of the compound represented by chemical formula 2 using bandage and gauze. Evaluation was conducted for the degree of erythema, scab formation and edema formation at a time interval of after 4 hours, 1 day, 2 days, 3 days, 4 days and 5 days.
Evaluation standard (Draize method)
From the above table, the following primary irritancy was obtained. Irritation index was obtained from Equation 1. Irritation index was obtained from the following table. Irritation index and safety classification are as follows. [formula]
Evaluation was conducted according to the method employed in Example 6.

[3] = Elution test of microcapsule powder in Isopal G; assay type: physicochemical; conditions: unencapsulated compound of chemical formula 1, temperature not given
Method: Elution test was conducted on microcapsule powder using Isopal G (aliphatic solvent EXXON Chemical company) which dissolves the compound of the chemical formula 1 in an optional rate. […] of the capsule powder was added to 10ml of Isopal G, and the mixture was maintained at room temperature or at 40 °C for 12 hours, and the amount of the compound of the chemical formula 1 eluted from the microcapsules was determined by gas chromatography. The rate of elution (active ingredient in Isopal G/added amount of active ingredient) was calculated.

| SMILES | water solubility (25 °C) [1] | Skin irritation, safety classification (irritation index) [2] | solubility in water [1] [ppm] | rate of elution (active ingredient in Isopal G/added amount of active ingredient) [3] [% elution] |
| --- | --- | --- | --- | --- |
| CCCCCCCCn1sc(Cl)c(Cl)c1=O [Compound of formula 4, 4,5-Dichloro-2-n-octyl-4-isothiazoline-3-one] | 6 ppm | strong irritation | – | – |
| N#CSCSc1nc2ccccc2s1 [Compound of the chemical formula 7, thiocyano methylthiobenzothiazol] | – | medium irritant | 100 | – |
| S=C=Nc1ccc(Cl)c(Cl)c1 [Unencapsulated, 3,4-dichlorophenyl-isothiocyanate] | – | – | – | 100 |
| O=S1(=O)CC(Cl)(Cl)C(Cl)(Cl)C1 [compound of the chemical formula 2, Tetrachlorotetrahydrothiophene-1,1-dioxide] | about 900 ppm | – | – | – |
| CNC(=O)Oc1cccc2c1OC(C)(C)C2 [compound of the chemical formula 6, 2,3-dihydro-2,2-dimethylbenzofuran-7-yl-methylcarbamate] | – | – | 700 | – |
